# What was measured:
# Assay type in all cases: in vivo
# bone = test: Micro-CT of trabecular bone in diabetic rats after C-peptide administration; conditions: 72 nmol/kg/24 h, compared to the diabetes only group (D-CTR)
# serum ubiquitin = test: Serum ubiquitin in diabetic rats after C-peptide administration; conditions: 72 nmol/kg/24 h for 42 days
# [1] = test system: muscle fibers of the Gastrocnemius (GC), Thiabialis (TA) and the long finger extensor muscle (EDL); test: Muscle fibre morphometry (CSA, perimeter, Minimum Feret diameter) after C-Peptide administration in diabetic rats; conditions: 72 nmol/kg/24 h for 42 days
# Method: The experimental tests carried out by the Applicant have shown that the administration of 72 nmol/kg/24 h of C-Peptide for 42 days improves the cross-sectional area (CSA), the perimeter and the Minimum Feret diameter of the muscle fibers of the Gastrocnemius (GC), Thiabialis (TA) and the long finger extensor muscle (EDL) in diabetic rats. Specifically, the mean CSA of the GC fibers decreased by 39.5% in the diabetic group, while only 6.6% in the rats of the C-peptide group. The CSA of the TA and EDL muscles was reduced, in the C-peptide group, by 10% and 11%, respectively, while a reduction of 65% and 45% occurred in the diabetic group, compared to the control animals. Similar results were obtained with the other parameters (perimeter and Minimum Feret diameter).
substance,measurement,setting,value
C-peptide,trabecular spaces,bone; p=0.01,reduction
same,trabecular thickness,bone; p=0.04,better
same,"serum ubiquitin, induced by diabetes",serum ubiquitin,prevents the increase
same,"cross-sectional area (CSA), perimeter and Minimum Feret diameter of the muscle fibers of GC, TA and EDL",[1],improves
same,mean CSA of the GC fibers decreased,"[1]; Gastrocnemius, diabetic group decreased by 39.5%",6.6%
same,CSA of the EDL muscle reduced,"[1]; compared to the control animals, diabetic group 45%",11%
same,CSA of the TA muscle reduced,"[1]; compared to the control animals, diabetic group 65%",10%
